Results on 1 sequence are retold here after patent publication US20240327459A1, “PEPTIDE FRAGMENTS FOR TREATMENT OF DIABETES” (Follicum AB, priority 2018, published 2024).

The test system of test [1] is db/db mice. Kind of test: HbA1c in db/db mice after 4 weeks of dosing. It is filed as in vivo, mouse. The conditions noted are these: 100 nmol/kg subcutaneously, 5 days per week for 4 weeks, vs PBS control. Here is the method:
To investigate the long-term effect of FOL-014 and FOL-056 in diabetic mice, db/db mice were dosed with 100 nmol/kg peptide subcutaneously, 5 days per week for 4 weeks. Control mice were injected with PBS. After 4 weeks of treatment the mice were terminated and 25 μl whole blood was immediately frozen for subsequent HbA1c analysis. (FIG. 21).

Test [2] relates to INS-1E cells. Description: Insulin secreting capacity after 72 hours of glucotoxic conditions (Examples 19, 22). The format is cell-based, rat. The conditions noted are these: Example 19, 20 mM glucose 72 hours with peptide, then 16.7 mM glucose 1 h. As to the method: To investigate the β-cell protective effect of FOL-056, we subjected INS-1E to cytotoxic levels of glucose for 72 hours. Rat INS-1E cells were seeded in 96-well plates (2×10^3 cells/well) in cRPMI medium. Following 72 hours of incubation, the medium was changed to RPMI containing 20 mM glucose with or without FOL-056 or FOL-014 and were cultured at 37° C. during an additional 72 hours to induce glucotoxicity. RPMI containing 5 mM glucose was included as a low glucose control. Following 72 hours, the medium was removed and the INS-1E cells were equilibrated in Krebs-Ringer bicarbonate buffer (KREB), pH 7.4, (supplemented with 10 mM HEPES, 0.1% bovine serum albumin and 2.8 mM glucose) for 2 hours. After equilibration, the buffer was changed and the INS-1E cells were incubated in KREBs containing 16.7 mM glucose […] during 1 h. Immediately after incubation, an aliquot of the buffer was removed and frozen for subsequent assay of insulin content.
To investigate the β-cell protective effect of several novel peptide fragments derived from FOL-005 and FOL-014, INS-1 cells were subjected to cytotoxic levels of glucose for 72 hours. […] In order to correct for the variance between experiments, all values were normalized to, and expressed as percentage of the average value of the high glucose control in the individual experiments. […]

The subject of test [3] is isolated mouse islets. Description: Insulin and glucagon secretion from isolated mouse islets (Example 12). The format is cell-based. Here is the method:
Twelve-week-old male C57/bl6 mice were euthanized with isoflurane and cervical dislocation. After clamping the hepatic ducts, 3 ml of 0.9 U/ml collagenase P was injected into the bile duct to inflate the pancreas. The pancreas was then removed and digested for 19 min at 37° C. The samples were vigorously shaken to disrupt the tissue. The digest was quickly transferred into ice cold Hank's Balanced Salts Solution with Ca^2+ and Mg^2+. The suspension was allowed to sit for 8 min to allow the islet to sink, and the islets were washed in the same manner four times. The islets were then handpicked and sorted according to size.
Freshly isolated islets were seeded in groups of 5 in a 96-well plate and preincubated for 1 h at 37° C. in a Krebs-Ringer bicarbonate buffer (pH 7.4). The islets were incubated for 1 h at 37° C. in Krebs-Ringer buffered solution supplemented with 0.6 or 6 μM FOL-014 or 100 nM GLP-1 or left unsupplemented for control. Immediately after incubation, the medium was removed for assays of insulin and glucagon using Mercodia's ELISA kits. The effect of FOL-014 on insulin (FIGS. 8A and B) and glucagon (FIGS. 8C and D) secretion from isolated mouse islets was measured in the presence of low glucose (2.8 mM; FIGS. 8A and C) or high glucose (16.7 mM; FIGS. 8B and D) concentrations.

The subject of test [4] is INS-1E cells. Description: Insulin secretion from INS-1E cells (Example 18). It is filed as cell-based, rat. The conditions noted are these: 100 nM peptide, high (16.7 mM) glucose buffer, 60 min, vs un-supplemented buffer. Here is the method:
To investigate the stimulatory effect of FOL-056 on insulin secretion we used INS-1E cells. The cells were seeded overnight and washed with PBS before pre-incubation for 60 min at 37° C. in Krebs-Ringer bicarbonate buffer (KRB), pH 7.4, supplemented with 10 mM HEPES, 0.1% bovine serum albumin. Following pre-incubation, the buffer was discarded and the INS-1E cells were incubated in fresh KRB buffer supplemented with 10 mM HEPES, 0.1% bovine serum albumin with or without peptide FOL-056. For comparative purposes cells treated with FOL-014 was included. Following 60 min incubation at 37.C, the buffer was removed and frozen for subsequent insulin assay.

Where [5] appears, read: low glucose (2.8 mM), FOL-014 0.6 or 6 μM.

“Also recorded” adds a separate entry of the source.

Consider “KPLAEIDSIELSYGIK (MISC_FEATURE - peptide, FOL-014)”, for which the HbA1c entry in test [1] is on record as “reduce the HbA1c in db/db mice as compared with the untreated control group; also recorded: significantly lower HbA1c”. For the same sequence, the “insulin secreting ability after glucotoxic conditions” value in test [2] is “significantly improved the insulin secreting ability of the β-cells as compared with high glucose media alone”. The insulin secretion result in test [3] (high glucose (16.7 mM), 600 nM) is on record as “significantly increased insulin secretion”; in test [3] (high glucose (16.7 mM), 6 μM) it was “but not 6 μM FOL-014, significantly increased insulin secretion”; in test [3] (setting [5]), “did not increase insulin secretion”; in test [4] it was “resulted in a significant increase in insulin secretion”. The glucagon secretion entry was “efficiently reduced glucagon secretion” in test [3] (high glucose (16.7 mM), both concentrations (0.6 and 6 μM)); “reduced glucagon secretion as compared with control and GLP-1” in test [3] (setting [5]).
